In PubChem BioAssay (NCI) one finds TGI data, which are given here for 16 molecules.

Molecules are shown by their SMILES.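 Test compounds were applied to cells in 96-well plates for 48 hours at 5 doses. TGI is the concentration that stops growth completely.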 Bounds are passed on as bounds.

Among the test systems are HCT-15 colon; SW-620 colon; LOX IMVI melanoma; 786-0 renal; SF-539 CNS; SK-MEL-28 melanoma; UACC-62 melanoma; SF-295 CNS.
Common to all, as to test: DTP human tumour cell line panel, 48 h

As a reminder, the TGI is the concentration at which net growth stops. Higher therefore signals less potent growth arrest. With `CCc1cccc(C(C)C)c1C1C(=O)C(=O)N(c2nc3ccccc3s2)C(=O)C1=O`, the TGI in the assay on HCT-15 colon, in the assay on SW-620 colon, in the assay with LOX IMVI melanoma, in the assay with 786-0 renal, with SF-539 CNS and in the assay with SK-MEL-28 melanoma was > 100 µM in each case. For the same molecule, the TGI with UACC-62 melanoma and in the assay on SF-295 CNS was > 100 µM in each case.
With `S=C(N/N=C/c1ccccc1)NC1CC(c2ccccc2)Oc2ccccc21` (stereo unspecified), the TGI with SW-620 colon, in the assay with LOX IMVI melanoma, in the assay with 786-0 renal, in the assay on SF-539 CNS, in the assay with SK-MEL-28 melanoma and with UACC-62 melanoma was > 100 µM in each case. Also, the TGI with SF-295 CNS is 87.7 µM.
As for `COc1ccc(C2Oc3cc(OC)c(O)cc3[C@@H]2C)cc1` (stereo partly specified), the TGI with HCT-15 colon was 35.4 µM; in the assay on SW-620 colon it was 40.2 µM; with LOX IMVI melanoma it was 27.9 µM; with 786-0 renal it was 31.3 µM; in the assay with SF-539 CNS, > 100 µM; in the assay with SK-MEL-28 melanoma it was > 100 µM. Further, the TGI in the assay with SF-295 CNS is > 100 µM.
Take `Nc1n[nH]c(=O)c2c1c(Br)cn2C1OC(CO)C(O)C1O` (stereo unspecified): the TGI is 48.4 µM in the assay on HCT-15 colon; > 100 µM in the assay with SW-620 colon; 15.3 µM with LOX IMVI melanoma; > 100 µM with 786-0 renal; 25.8 µM with SF-539 CNS; 26.6 µM in the assay on SK-MEL-28 melanoma. Also, the TGI in the assay with UACC-62 melanoma was 37.5 µM; in the assay with SF-295 CNS it was > 90.2 µM.
Take `CC(=O)/C=C\C(=O)NNS(=O)(=O)c1ccc(C)cc1`: the TGI in the assay on HCT-15 colon, with SW-620 colon, with LOX IMVI melanoma, in the assay with 786-0 renal, in the assay with SF-539 CNS and in the assay on SK-MEL-28 melanoma was > 100 µM throughout. For the same molecule, the TGI with UACC-62 melanoma and with SF-295 CNS was > 100 µM throughout.
Regarding `CC(=O)OC12CCCCC1C1(CCCC1)NC2=O` (stereo unspecified), the TGI with HCT-15 colon, with SW-620 colon, with LOX IMVI melanoma, in the assay on 786-0 renal, in the assay with SF-539 CNS and in the assay with SK-MEL-28 melanoma was > 100 µM each time. Further, the TGI with UACC-62 melanoma and with SF-295 CNS was > 100 µM each time.
For `CC/C(=C(\c1ccccc1)c1ccc(OCC[N+](C)(C)C)cc1)c1ccccc1`, the TGI is 34.1 µM in the assay on HCT-15 colon; 30 µM with SW-620 colon; 27.7 µM in the assay on LOX IMVI melanoma; 27.9 µM in the assay on 786-0 renal; 40.6 µM in the assay with SF-539 CNS; 22.2 µM with SK-MEL-28 melanoma. For the same molecule, the figures for the TGI in the assay with UACC-62 melanoma and in the assay with SF-295 CNS were 26.8 µM and 33.8 µM, respectively.
For `O=C1[C@@H]2C3C=CC([C@H]4C(=O)N(CO)C(=O)[C@@H]34)[C@@H]2C(=O)N1CO`, the TGI in the assay on HCT-15 colon is > 56.7 µM; with SW-620 colon it was > 65.5 µM; with LOX IMVI melanoma, > 61 µM; in the assay on 786-0 renal, > 63.6 µM; with SF-539 CNS, > 100 µM; with SK-MEL-28 melanoma, > 100 µM. The TGI in the assay with UACC-62 melanoma and in the assay on SF-295 CNS was > 100 µM in each case.
With `COC(=O)c1c(OC(=O)c2ccccc2)noc1CC(=O)OC1C=CCCC1` (stereo unspecified), the TGI in the assay on HCT-15 colon, in the assay with SW-620 colon, with 786-0 renal, in the assay with SF-539 CNS, in the assay with SK-MEL-28 melanoma and in the assay with UACC-62 melanoma was > 100 µM in each case.
Take `C[N+](C)(C)CC(=O)N/N=C(\C(=O)Nc1ccc(Cl)cc1)C1C(=O)N(c2ccccc2)N=C1N` (stereo unspecified): the TGI with HCT-15 colon, in the assay on SW-620 colon, with LOX IMVI melanoma, with 786-0 renal, with SF-539 CNS and in the assay with SK-MEL-28 melanoma was > 100 µM each time. For the same molecule, the TGI in the assay with UACC-62 melanoma was > 100 µM.
`COc1ccccc1C1C(Cl)C(=O)N1NC(=O)Cc1ccccc1` (stereo unspecified): the TGI in the assay with HCT-15 colon, in the assay with SW-620 colon, in the assay with LOX IMVI melanoma, in the assay with 786-0 renal, in the assay with SK-MEL-28 melanoma and in the assay on UACC-62 melanoma was > 100 µM each time. Moreover, the TGI in the assay with SF-295 CNS is > 100 µM.
As for `COC(=O)c1cc(CNCCc2c[nH]c3ccccc23)on1`, the TGI in the assay on HCT-15 colon is > 100 µM; with SW-620 colon, > 100 µM; in the assay on LOX IMVI melanoma it was > 100 µM; in the assay with 786-0 renal it was > 94.6 µM; in the assay on SF-539 CNS, > 100 µM; in the assay with SK-MEL-28 melanoma, > 100 µM. Moreover, the TGI in the assay on UACC-62 melanoma and with SF-295 CNS was > 100 µM each time.
For the molecule `O=[N+]([O-])c1ccc(-c2ccc(C3=Nn4c(nnc4-c4ccc(Cl)cc4)SC3)o2)cc1`, the TGI with HCT-15 colon, with SW-620 colon, in the assay with LOX IMVI melanoma, with 786-0 renal, in the assay on SF-539 CNS and in the assay on SK-MEL-28 melanoma was > 100 µM throughout. For the same molecule, the TGI in the assay on UACC-62 melanoma is > 100 µM; in the assay on SF-295 CNS it was > 82.1 µM.
With `CCN(CC)CC(C(=O)Nc1c(C)cccc1C)/C(C)=N/NC(N)=S` (stereo unspecified), the TGI in the assay on SW-620 colon, in the assay on LOX IMVI melanoma, in the assay with 786-0 renal, in the assay with SF-539 CNS, in the assay with SK-MEL-28 melanoma and in the assay with UACC-62 melanoma was > 100 µM throughout. The TGI in the assay on SF-295 CNS was > 100 µM.
Consider `CCOc1ccccc1Nc1nc(C)c(C(=O)CC(=O)C(=O)Nc2ccccc2)s1`, for which the TGI in the assay on HCT-15 colon, in the assay on SW-620 colon, in the assay with LOX IMVI melanoma, with 786-0 renal, in the assay with SF-539 CNS and in the assay on SK-MEL-28 melanoma was > 100 µM throughout. For the same molecule, the TGI with UACC-62 melanoma and in the assay with SF-295 CNS was > 100 µM throughout.
In the case of `COc1ccc2nccc(C3OC(=O)N4CCC(=O)CC34)c2c1` (stereo unspecified), the TGI in the assay with HCT-15 colon, in the assay on SW-620 colon, with LOX IMVI melanoma, with 786-0 renal, with SF-539 CNS and with SK-MEL-28 melanoma was > 100 µM each time. The TGI with UACC-62 melanoma and in the assay on SF-295 CNS was > 100 µM in each case.
